From publication PMC6520475 (European Journal of Drug Metabolism and Pharmacokinetics, 2018)

Legend:
[1] = cited from earlier work
[2] = Population pharmacokinetic; details: base model without covariates
[3] = general statement, no reference given; cited from earlier work

## CN[C@H](CC(C)C)C(=O)N[C@H]1C(=O)N[C@@H](CC(N)=O)C(=O)N[C@H]2C(=O)N[C@H]3C(=O)N[C@H](C(=O)N[C@H](C(=O)O)c4cc(O)cc(O)c4-c4cc3ccc4O)[C@H](O)c3ccc(c(Cl)c3)Oc3cc2cc(c3O[C@@H]2O[C@H](CO)[C@@H](O)[C@H](O)[C@H]2O[C@H]2C[C@](C)(N)[C@H](O)[C@H](C)O2)Oc2ccc(cc2Cl)[C@H]1O [vancomycin]
[1]; Adult Chinese patients, n = 72, 1-compartment model, ref 7 (Deng)
  Vd, PopPK model: 47.76 L
[1]; Adult Gram-positive bacterial infection in ICU, n = 103, ref 25 (Weng Fangjuan)
  V2, PopPK model: 44.2 L
[1]; MRSA infectors, n = 76, 1-compartment model, ref 11 (Leu)
  CL, PopPK model: CLCR
[2]
  θ1CL, population typical value of CL, base model: 2.47 L/h
  θ2Vd, population typical value of Vd, base model: 142 L
[3]
  Fraction of vancomycin excreted through the kidney: 90%
